One experiment deals with washed human platelets. Description: Collagen-stimulated platelet aggregation (aggregometer). The format is cell-based. Particulars: 0.25 mM arachidonic acid added later; 2 μg/ml collagen; inhibitor of Examples 1 and 2 present. The method, then: Human platelets are washed in modified Tyrode's buffer with no Ca^++ with 0.2 mg/ml fibrinogen. The washed platelets are incubated at 37° C. for 2 minutes with the sample to be tested. Collagen at 1 or 2 μg/ml final concentration is added and platelet aggregation in an aggregometer is monitored. Inhibitory activity is defined as a decrease in the rate and/or extent of platelet aggregation.
The IC50 for this inhibition was 45 nM. Inhibition of collagen stimulation was overcome by later addition of 0.25 mM arachidonic acid.

For the molecule `CCCCC/C=C\C/C=C\C/C=C\C/C=C\CCCC(=O)O` [arachidonic acid], in the experiment on washed human platelets, the “Inhibition of collagen stimulation of platelet aggregation (by the Haementeria officinalis inhibitor) overcome by later addition” value is “overcome”.

B1: collagen-stimulated platelet aggregation inhibitor isolated from Haementeria officinalis salivary gland extract (leech antiplatelet protein, LAPP) (protein)
chain: QDEDAGGAGDETSEGEDTTGSDETPSTGGGGDGGNEETITAGNGDCWSKRPGWKLPDNLLTKTEFTSVDECRKMCEESAVEPSCYILQINTETNECYRNNEGDVTWSSLQYDQPNVVQWHLHACSK
Regarding B1, the IC50 of inhibition of collagen-stimulated platelet aggregation in the experiment with collagen is 45 nM.

The record behind these values is patent publication US5324715A, “Protein for inhibiting collagen-stimulated platelet aggregation” (Merck & Co., Inc., priority 1993, dated 1994).
